Experimental data reported in US11078202B2, “β-lactamase inhibitor and use thereof” (priority 2018, dated 2021).
Structures can show the parent of a compound that is named as a salt.

Tests used:
Assay type in all cases: cell-based
[1] = test system: Klebsiella pneumoniae XNWB 0003; assay: MIC assay of test compounds combined with imipenem (4 μg/mL); conditions: imipenem 4 μg/mL fixed
In short: (§1)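 We recorded each combination MIC according to CLSI after culturing plates at 35±2 °C for 16-20 h. The inoculum consisted of colonies suspended in 0.9% NaCl (OD600 0.1-0.15) and diluted 300-fold with 1.1×CAMHB, mixed with compound dilutions and the partner β-lactam.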

[2] = test system: Klebsiella pneumoniae XNWB 0004; assay: as above; conditions: imipenem 4 μg/mL fixed
In short: as §1

[3] = test system: Acinetobacter baumannii XNWB 0007; assay: as above; conditions: imipenem 4 μg/mL fixed
In short: as §1

[4] = test system: Klebsiella pneumoniae XNWB 0005; assay: as above; conditions: imipenem 4 μg/mL fixed
In short: as §1

[5] = test system: Klebsiella pneumoniae XNWB 0002; assay: as above; conditions: imipenem 4 μg/mL fixed
In short: as §1

[6] = test system: Pseudomonas aeruginosa XNWB 0008; assay: as above; conditions: imipenem 4 μg/mL fixed
In short: as §1

[7] = test system: Klebsiella pneumoniae XNWB 0006; assay: as above; conditions: imipenem 4 μg/mL fixed
In short: as §1

[8] = test system: Klebsiella pneumoniae XNWB 0001; assay: as above; conditions: imipenem 4 μg/mL fixed
In short: as §1

[9] = test system: Klebsiella pneumoniae XNWB 0003; assay: MIC assay of test compounds combined with ceftazidime (8 μg/mL); conditions: ceftazidime 8 μg/mL fixed
In short: as §1

[10] = test system: Klebsiella pneumoniae XNWB 0004; assay: as above; conditions: ceftazidime 8 μg/mL fixed
In short: as §1

[11] = test system: Acinetobacter baumannii XNWB 0007; assay: as above; conditions: ceftazidime 8 μg/mL fixed
In short: as §1

[12] = test system: Klebsiella pneumoniae XNWB 0005; assay: as above; conditions: ceftazidime 8 μg/mL fixed
In short: as §1

[13] = test system: Klebsiella pneumoniae XNWB 0002; assay: as above; conditions: ceftazidime 8 μg/mL fixed
In short: as §1

[14] = test system: Pseudomonas aeruginosa XNWB 0008; assay: as above; conditions: ceftazidime 8 μg/mL fixed
In short: as §1

[15] = test system: Klebsiella pneumoniae XNWB 0006; assay: as above; conditions: ceftazidime 8 μg/mL fixed
In short: as §1

[16] = test system: Klebsiella pneumoniae XNWB 0001; assay: as above; conditions: ceftazidime 8 μg/mL fixed
In short: as §1

Compound	The minimum concentration of test compounds combined with imipenem (4 μg/mL) for bacteriostasis [1]	The minimum concentration of test compounds combined with imipenem (4 μg/mL) for bacteriostasis [2]	The minimum concentration of test compounds combined with imipenem (4 μg/mL) for bacteriostasis [3]	The minimum concentration of test compounds combined with imipenem (4 μg/mL) for bacteriostasis [4]	The minimum concentration of test compounds combined with imipenem (4 μg/mL) for bacteriostasis [5]	The minimum concentration of test compounds combined with imipenem (4 μg/mL) for bacteriostasis [6]	The minimum concentration of test compounds combined with imipenem (4 μg/mL) for bacteriostasis [7]	The minimum concentration of test compounds combined with imipenem (4 μg/mL) for bacteriostasis [8]	The minimum concentration of test compounds combined with ceftazidime (8 μg/mL) for bacteriostasis [9]	The minimum concentration of test compounds combined with ceftazidime (8 μg/mL) for bacteriostasis [10]	The minimum concentration of test compounds combined with ceftazidime (8 μg/mL) for bacteriostasis [11]	The minimum concentration of test compounds combined with ceftazidime (8 μg/mL) for bacteriostasis [12]	The minimum concentration of test compounds combined with ceftazidime (8 μg/mL) for bacteriostasis [13]	The minimum concentration of test compounds combined with ceftazidime (8 μg/mL) for bacteriostasis [14]	The minimum concentration of test compounds combined with ceftazidime (8 μg/mL) for bacteriostasis [15]	The minimum concentration of test compounds combined with ceftazidime (8 μg/mL) for bacteriostasis [16]
CNCCNC[C@H](O)c1nnc([C@@H]2CC3(CC3)[C@@H]3CN2C(=O)N3OS(=O)(=O)O)o1 [Example 30, (1R,4S)-4-(5-((S)-1-hydroxy-2-((2-(methylamino)ethyl)amino)ethyl)-1,3,4-oxadiazol-2-yl)-6-oxo-5,7-diazaspiro[bicyclo[3.2.1]octane-2,1′-cyclopropan]-7-yl sulfate]	A (A: <8 μg/mL)	A (A: <8 μg/mL)	B (B: 8-16 μg/mL)	A (A: <8 μg/mL)	A (A: <8 μg/mL)	C (C: 16-128 μg/mL)	A (A: <8 μg/mL)	A (A: <8 μg/mL)	A (A: <8 μg/mL)	B (B: 8-16 μg/mL)	C (C: 16-128 μg/mL)	B (B: 8-16 μg/mL)	A (A: <8 μg/mL)	C (C: 16-128 μg/mL)	A (A: <8 μg/mL)	B (B: 8-16 μg/mL)
N[C@H]1C[C@H](Cc2nnc([C@@H]3CC4(CC4)[C@@H]4CN3C(=O)N4OS(=O)(=O)O)o2)C1 [Example 19, (1R,4S)-4-(5-(((1R,3R)-3-aminocyclobutyl)methyl)-1,3,4-oxadiazol-2-yl)-6-oxo-5,7-diazaspiro[bicyclo[3.2.1]octane-2,1′-cyclopropan]-7-yl sulfate]	A (A: <8 μg/mL)	A (A: <8 μg/mL)	B (B: 8-16 μg/mL)	A (A: <8 μg/mL)	A (A: <8 μg/mL)	B (B: 8-16 μg/mL)	A (A: <8 μg/mL)	A (A: <8 μg/mL)	A (A: <8 μg/mL)	A (A: <8 μg/mL)	C (C: 16-128 μg/mL)	A (A: <8 μg/mL)	A (A: <8 μg/mL)	B (B: 8-16 μg/mL)	A (A: <8 μg/mL)	A (A: <8 μg/mL)
N[C@H]1C[C@H](Cc2nnc([C@@H]3CC4(CC4)[C@@H]4CN3C(=O)N4OS(=O)(=O)O)o2)C1 [Example 20, (1R,4S)-4-(5-(((1S,3S)-3-aminocyclobutyl)methyl)-1,3,4-oxadiazol-2-yl)-6-oxo-5,7-diazaspiro[bicyclo[3.2.1]octane-2,1′-cyclopropan]-7-yl sulfate]	A (A: <8 μg/mL)	A (A: <8 μg/mL)	B (B: 8-16 μg/mL)	A (A: <8 μg/mL)	A (A: <8 μg/mL)	A (A: <8 μg/mL)	A (A: <8 μg/mL)	A (A: <8 μg/mL)	A (A: <8 μg/mL)	A (A: <8 μg/mL)	C (C: 16-128 μg/mL)	A (A: <8 μg/mL)	A (A: <8 μg/mL)	B (B: 8-16 μg/mL)	A (A: <8 μg/mL)	A (A: <8 μg/mL)
O=C1N2C[C@H](N1OS(=O)(=O)O)C1(CC1)C[C@H]2c1ccon1 [Example 54, (1R,4S)-4-(isoxazol-3-yl)-6-oxo-5,7-diazaspiro[bicyclo[3.2.1]octane-2,1′-cyclopropan]-7-yl sulfate]	A (A: <8 μg/mL)	A (A: <8 μg/mL)	C (C: 16-128 μg/mL)	A (A: <8 μg/mL)	A (A: <8 μg/mL)	C (C: 16-128 μg/mL)	A (A: <8 μg/mL)	A (A: <8 μg/mL)	B (B: 8-16 μg/mL)	C (C: 16-128 μg/mL)	C (C: 16-128 μg/mL)	C (C: 16-128 μg/mL)	A (A: <8 μg/mL)	C (C: 16-128 μg/mL)	A (A: <8 μg/mL)	B (B: 8-16 μg/mL)
CNC1(Cc2nnc([C@@H]3CC4(CC4)[C@@H]4CN3C(=O)N4OS(=O)(=O)O)o2)CC1 [Example 22, (1R,4S)-4-(5-((1-(methylamino)cyclopropyl)methyl)-1,3,4-oxadiazol-2-yl)-6-oxo-5,7-diazaspiro[bicyclo[3.2.1]octane-2,1′-cyclopropan]-7-yl sulfate]	A (A: <8 μg/mL)	A (A: <8 μg/mL)	C (C: 16-128 μg/mL)	A (A: <8 μg/mL)	A (A: <8 μg/mL)	C (C: 16-128 μg/mL)	A (A: <8 μg/mL)	A (A: <8 μg/mL)	B (B: 8-16 μg/mL)	C (C: 16-128 μg/mL)	C (C: 16-128 μg/mL)	B (B: 8-16 μg/mL)	A (A: <8 μg/mL)	C (C: 16-128 μg/mL)	A (A: <8 μg/mL)	B (B: 8-16 μg/mL)
